Data published in paper PMC8905628, “Integrin α6-Targeted Molecular Imaging of Central Nervous System Leukemia in Mice” (Frontiers in Bioengineering and Biotechnology, 2022).

Assays:
[1] = test system: NALM6-luciferase tumor-bearing mice; test: T1-weighted MR imaging of NALM6-luciferase tumor-bearing mice (CNS-L); format: in vivo, NOD/SCID mice; conditions: 0.03 mmol of Gd/kg, tail vein, 3.0 T, baseline and 5, 10, 15 min post-injection
Description: The human ALL cell lines including NALM6, Reh, Jurkat, and CCRF-CEM were purchased from the American Type Culture Collection (ATCC) and cultured in RPMI 1640 medium supplemented with 10% fetal bovine serum and 0.5% penicillin–streptomycin and incubated at 37 °C/5%CO2. To facilitate tumor monitoring, luminescent cells NALM6-luciferase were generated by stable transfection with luciferase. Female NOD/SCID mice (6 weeks old) were purchased from Vita River, Charles River Laboratories, China (Beijing, China). NOD/SCID mice were injected via the tail vein with 1 × 10^6 luciferased cells suspended in 150 µl of sterile phosphate-buffered saline (PBS). Bioluminescence imaging was applied to monitor the leukemic burden. All animal experiments were approved by the Institutional Animal Care and Use Committee (IACUC) at the Sun Yat-sen University Cancer Center (IACUC approval number L102012020070M), and the welfare and treatment of the laboratory animals were in accordance with the corresponding animal management regulations.
Bioluminescence confirmed CNS-L mice were used for MR and PET imaging studies in the next few days after the NIRF imaging. MR imaging was performed using a Philips Achieva 3.0 T system. Mice were anesthetized with 2,2,2-Tribromoethanol ([…]), fixed on the holder, and placed into the mouse-imaging coil. […]

NALM6 cells = test: Immunofluorescence / confocal microscopy of S5 peptide in NALM6 cells; format: cell-based, human
Description: Approximately 1 × 10^6 NALM6 cells were seeded on cover slips in 24-well plates and incubated for 24 h. Subsequently, the 80 μM S5 peptide was added into the culture medium and incubated with cells for 4 h, while the blank control group was added to the same volume of RPMI 1640 medium. After that, cells of each group were washed with PBS five times, fixed with 4% paraformaldehyde for 15 min, permeabilized with 0.1% Triton X-100 (Sigma-Aldrich, Germany), and blocked with 1% BSA for 30 min. The cover slips were incubated with the anti-integrin α6 antibody (Abcam, ab181551) at 4°C overnight, followed by incubation with streptavidin-Cy3 (Thermo Fisher 434315, United States) and the goat anti-mouse Alexa Fluor 488 secondary antibody (Abcam, ab150113) for 1 h at room temperature in a dark chamber. Finally, cover slips were incubated with 1 μg/ml DAPI and mounted with slides with ProLong gold antifade (Invitrogen P26930, United States). Fluorescence images were visualized and captured under a confocal microscopy confocal laser-scanning system (Zeiss, LSM980, Germany) at 40× and 100× magnification. Co-localization was analyzed by ImageJ (http://rsbweb.nih.gov/ij/) and the co-localization finder plug-in.

[2] = test system: Human ITGA6 & ITGB4 Heterodimer Protein; test: Microscale thermophoresis affinity of S5 peptides; format: binding; conditions: cyclic vs straight S5 peptide; preliminary experiments, Supplementary Figures S2A, S2B; MST, Monolith NT.115, protein 100 nM, peptide from 100 uM diluted 1:1, PBST, 80 % LED/excitation power, medium MST power
Description: The affinity of cyclic S5 peptide, straight S5 peptide, NOTA-S5 and Gd-S5 with Human ITGA6 & ITGB4 Heterodimer Protein (Manufactured by Sino Biological Catalog Number: CT069-H2508H) was determined by microscale thermophoresis (MST). Firstly, 0.05% PBST was prepared, 25ul of Tween 20 was added to 50ml of PBS and filtered through 0.22um filter paper. Then dilute the peptide: dissolve the above 4 peptides into 1mM storage solution concentration. Take 20 ul of peptide and mix with 80 ul of PBST and dilute to a working concentration of […]. Next dilute the dye: Take 2 µL of RED-tris-NTA II dye (Manufactured by NanoTemper Cat# MO-L018 5 µM) and mix with 98 µl of PBST to obtain 100 µL of dye (100 nM). Finally, 100 ul of Human ITGA6 & ITGB4 Heterodimer Protein (400 nM) was mixed with 100 ul of dye (100 nM) and incubated at room temperature for 30 min, at which time the protein concentration was 200 nM. 10 ul of peptide (200 uM) was added to the PCR tube, and 16 tubes were diluted 1:1 with PBST. Then take 3 ul of protein/dye mixture in the PCR tube, add 3 ul of […] concentrations of peptide and mix well. The concentration of protein was 100 nM and the concentration of peptide in the first tube was 100 uM. […] Kd was calculated by Kd fitting mode using MO.Affinity Analysis.

integrin α6 = conditions: cited from earlier work
Text: We further translated the RWY peptide into an integrin α6-targeted PET probe and MRI probe that have been successfully applied for tumor imaging of the integrin α6 expression ([Feng GK et al., 2019]; [Xiao et al., 2019]; [Zhang Y et al., 2020]; [Gao et al., 2020]). Recently, our group improved the characteristics of the peptide by alanine scanning and obtained a novel integrin α6-targeting peptide […] (dubbed S5) which ...

## O=C([O-])CN(CCN(CC(=O)[O-])CC(=O)O)CCN(CC(=O)[O-])CC(=O)O.[Gd+3] [Gd-DTPA, gadolinium-diethylenetriamine pentaacetic acid]
[1]
  MR enhancement signals: did not show obvious enhancement signals

## CRWYDANAC [S5]
NALM6 cells; 80 μM S5 peptide, 4 h, green fluorescence
  cellular uptake of the S5 peptide: entered the cytoplasm through cytocytosis after binding to the cell membrane
NALM6 cells; 80 μM S5 peptide, 4 h of co-culturing, fluorescence microscopy
  cellular localization of the S5 peptide: enriched and localized at the nuclei of NALM6 cells
NALM6 cells; NALM6 cells, as summarised in Discussion
  location of integrin α6 and the S5 peptide confirmed by confocal microscopy (Discussion): dominating membrane location
[2]
  binding of cyclic and straight peptides compared: equivalent
Integrin α6; vs RWY, obtained by alanine scanning, ref Mei et al., 2020, Lin et al., 2021
  specificity and affinity to integrin α6: higher specificity and affinity

## CRWYDENAC [reference compound]
Integrin α6; identified by phage display technology, ref Feng G et al., 2019
  binding to integrin α6: could bind specifically to integrin α6
